Measurements reported in patent US6730667B2, “Iontophoresis disc pain blocker” (priority 2001, dated 2004).

Tested on: overactive nerve fibers
Test: Iontophoretic delivery, practical patient experience
Assay type: in vivo, human
Conditions: ketamine at 2 to 4% or higher, clonidine at 0.2 to 0.4%, unbuffered; positive polarity
Experimental: Once the desired nerve or nerves are identified, a preselected composition of pharmaceuticals 14 is prepared for an administration step 16. Administration may be topical, by methods including gel 18 or spray 20. Iontophoresis is a preferred method. The composition is applied to a patch 22 for iontophoretic administration. Suitable patch structures include both single and multi-layered gel matrix discs. For example, a patch may be arranged with one or more layers of pH buffered electrolytes between drug layers. Ionotphoresis 24 delivers the drugs by application of tiny unipolar or switchable bipolar micro amperage current to the gel disc over the next 24 to 36 plus hours, producing blockade to the excessive nerve firing.
These are ketamine, which is an NMDA receptor blocker, at 2 to 4% or higher, and clonidine, which is an […], at 0.2 to 0.4% concentration, unbuffered. Both have positive polarity, and are positive charged. Selection of positive polarity would push the drug along the pathway of least resistance, finding the involved overactive nerve fibers; and pain blockade would occur.

SMILES: CNC1(c2ccccc2Cl)CCCCC1=O (centres unmarked) [ketamine]
- suitability for delivery by iontophoresis: work well

SMILES: Clc1cccc(Cl)c1N=C1NCCN1 [clonidine]
- suitability for delivery by iontophoresis: work well
